The values that follow come from patent US20250154152A1, “INHIBITORS OF NAEGLERIA FOWLERI” (Wisconsin Alumni Research Foundation, priority 2023, published 2025).

Like-named read-outs stand apart in the source and are kept apart here.

This assay deals with N. fowleri strain Nf69 (ATCC 30215) trophozoites. Nature of the assay: Determination of EC50 values against Naegleria fowleri (growth inhibition, CellTiter Glo, 48 h). The class given is cell-based. The settings on record: read-out: EC50 uM against N. fowleri. The procedure, abridged:
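Axenic Nf69 trophozoites in Nelson's complete medium with 10% FBS exposed to compound, initially 20–0.375 μM, for 48 h at 37 °C, 5% CO2. Viability read by CellTiter-Glo luminescence; % growth inhibition versus controls, triplicate averages fitted for EC50, with lower ranges used for very potent compounds.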

Setting [1] is: ATCC30215, N. fowleri Nf69 trophozoites, 48 h culture, 37° C., CellTiter Glo luminescence.

As a reminder, the EC50 is the concentration that produces a half-maximal response. As for `CN(C)CCN1CCC[C@@H]2c3nc4cc(Cl)c(Cl)cc4c(=O)n3CC[C@H]21` (racemic) [trans-7oo, (±)-(4aR,13bS)-10,11-dichloro-4-(2-(dimethylamino)ethyl)-1,2,3,4,4a,5,6,13b-octahydro-8H-[1,6]naphthyridino[5,6-b]quinazolin-8-one], the EC50 under setting [1] lay within 0.1 to 1 µM.
On the same count and under the same terms, the same measure for `Cc1cccc(CN2CCC[C@@H]3c4nc5cc(Cl)c(Cl)cc5c(=O)n4CC[C@H]32)n1` (racemic) [trans-7p, (±)-(4aR,13bS)-10,11-dichloro-4-((6-methylpyridin-2-yl)methyl)-1,2,3,4,4a,5,6,13b-octahydro-8H-[1,6]naphthyridino[5,6-b]quinazolin-8-one]: 0.1 to 1 µM; for `O=c1c2cc(Cl)c(Cl)cc2nc2n1CC[C@@H]1[C@@H]2CCCN1CC1CC1` (racemic) [trans-7q, (±)-(4aR,13bS)-10,11-dichloro-4-(cyclopropylmethyl)-1,2,3,4,4a,5,6,13b-octahydro-8H-[1,6]naphthyridino[5,6-b]quinazolin-8-one]: 0.0001 to 0.1 µM; for `N#Cc1ccc(CN2CCC[C@@H]3c4nc5cc(Cl)c(Cl)cc5c(=O)n4CC[C@H]32)cc1` (racemic) [trans-7r, (±)-(4-(((4aR,13bS)-10,11-dichloro-8-oxo-2,3,5,6,8,13b-hexahydro-1H-[1,6]naphthyridino[5,6-b]quinazolin-4(4aH)-yl)methyl)benzonitrile]: more than 10 µM.
Still for that read-out and setting: the value for `CC(C)(C)c1ccc(CN2CCC[C@@H]3c4nc5cc(Cl)c(Cl)cc5c(=O)n4CC[C@H]32)cc1` (racemic) [trans-7s, (±)-(4aR,13bS)-4-(4-(tert-butyl)benzyl)-10,11-dichloro-1,2,3,4,4a,5,6,13b-octahydro-8H-[1,6]naphthyridino[5,6-b]quinazolin-8-one] was more than 10 µM; that for `O=c1c2cc(Cl)c(Cl)cc2nc2n1CC[C@@H]1[C@@H]2CCCN1Cc1ccccc1` (racemic) [trans-7w, (±)-(4aR,13bS)-4-benzyl-10,11-dichloro-1,2,3,4,4a,5,6,13b-octahydro-8H-[1,6]naphthyridino[5,6-b]quinazolin-8-one] was 0.1 to 1 µM.
In the case of `O=c1c2cc(Cl)c(Cl)cc2nc2n1CC[C@@H]1[C@@H]2CCCN1Cc1cnccn1` (racemic) [trans-7x, (±)-(4aR,13bS)-10,11-dichloro-4-(pyrazin-2-ylmethyl)-1,2,3,4,4a,5,6,13b-octahydro-8H-[1,6]naphthyridino[5,6-b]quinazolin-8-one], the EC50 under setting [1] was in the range of 0.0001 to 0.1 µM.
On the same count and under the same terms, the value for `O=c1c2cc(Cl)c(Cl)cc2nc2n1CC[C@@H]1[C@@H]2CCCN1CCN1CCOCC1` (racemic) [trans-7y, (±)-(4aR,13bS)-10,11-dichloro-4-(2-morpholinoethyl)-1,2,3,4,4a,5,6,13b-octahydro-8H-[1,6]naphthyridino[5,6-b]quinazolin-8-one] was 0.0001 to 0.1 µM.
Consider `CC(C)OCCN1CCC[C@@H]2c3nc4cc(Cl)c(Cl)cc4c(=O)n3CC[C@H]21` (racemic) [trans-7z, (±)-(4aR,13bS)-10,11-dichloro-4-(2-isopropoxyethyl)-1,2,3,4,4a,5,6,13b-octahydro-8H-[1,6]naphthyridino[5,6-b]quinazolin-8-one], for which the EC50 (ATCC30215, 48 h) was in the range of 0.0001 to 0.1 µM.
`Cc1ccc(-c2ccc3nc4n(c(=O)c3c2)CC[C@@H]2[C@@H]4CCCN2C)cn1` (racemic) [trans-9a, (±)-(4aR,13bS)-4-methyl-10-(6-methylpyridin-3-yl)-1,2,3,4,4a,5,6,13b-octahydro-8H-[1,6]naphthyridino[5,6-b]quinazolin-8-one]: the EC50 under setting [1] is more than 10 µM.
Same read-out and setting: the value for `CN1CCC[C@@H]2c3nc4cc(-c5ccccc5)c(Cl)cc4c(=O)n3CC[C@H]21` (racemic) [trans-9b, (±)-(4aR,13bS)-10-chloro-4-methyl-11-phenyl-1,2,3,4,4a,5,6,13b-octahydro-8H-[1,6]naphthyridino[5,6-b]quinazolin-8-one] was 1 to 10 µM; that for `COc1ccc2c(=O)n3c(nc2c1)[C@H]1CCCN(C)[C@@H]1CC3` (racemic) [trans-50, (±)-(4aR,13bS)-11-methoxy-4-methyl-1,2,3,4,4a,5,6,13b-octahydro-8H-[1,6]naphthyridino[5,6-b]quinazolin-8-one] was 1 to 10 µM; that for `COc1cc2nc3n(c(=O)c2cc1Cl)CC[C@@H]1[C@@H]3CCCN1CC(C)C` (single isomer, unassigned) [trans-10g-ent-1] was 0.1 to 1 µM.
On the same count and under the same terms, the value for `COc1cc2nc3n(c(=O)c2cc1Cl)CC[C@H]1[C@H]3CCCN1CC(C)C` (single isomer, unassigned) [trans-10h-ent-2] was 0.0001 to 0.1 µM; that for `COc1cc2nc3n(c(=O)c2cc1Cl)CC[C@@H]1[C@@H]3CCCN1CC1COC1` (single isomer, unassigned) [trans-10i-ent-1] was 0.1 to 1 µM; that for `COc1cc2nc3n(c(=O)c2cc1Cl)CC[C@H]1[C@H]3CCCN1CC1COC1` (single isomer, unassigned) [trans-10j-ent-2] was 0.0001 to 0.1 µM.
Same read-out and setting: the value for `Cn1c(C2CN(CC3COC3)C2)nc2cc(Cl)c(Cl)cc2c1=O` [Compound 14i, 6,7-dichloro-3-methyl-2-(1-(oxetan-3-ylmethyl)azetidin-3-yl)quinazolin-4(3H)-one] was more than 10 µM.
As to `CC(C)OCCN1CCC[C@@H](c2nc3cc(Cl)c(Cl)cc3c(=O)n2C)C1` [Compound R-14aa, (R)-6,7-dichloro-2-(1-(2-isopropoxyethyl)piperidin-3-yl)-3-methylquinazolin-4(3H)-one], under setting [1], the EC50 fell in the range of 1 to 10 µM.
The same measure, in the same setting: the same measure for `CC(C)N1CCC[C@@H](c2nc3cc(Cl)c(Cl)cc3c(=O)n2C)C1` [Compound R-14b, (R)-6,7-dichloro-2-(1-isopropylpiperidin-3-yl)-3-methylquinazolin-4(3H)-one]: more than 10 µM.
The same measure, in the same setting: the value for `Cn1c([C@@H]2CCCN(CCN3CCOCC3)C2)nc2cc(Cl)c(Cl)cc2c1=O` [Compound R-14bb, (R)-6,7-dichloro-3-methyl-2-(1-(2-morpholinoethyl)piperidin-3-yl)quinazolin-4(3H)-one] was 1 to 10 µM; that for `Cn1c([C@@H]2CCCN(CC3CCOCC3)C2)nc2cc(Cl)c(Cl)cc2c1=O` [Compound R-14d, (R)-6,7-dichloro-3-methyl-2-(1-((tetrahydro-2H-pyran-4-yl)methyl)piperidin-3-yl)quinazolin-4(3H)-one] was more than 10 µM; that for `Cn1c([C@@H]2CCCN(CCN3CCCC3)C2)nc2cc(Cl)c(Cl)cc2c1=O` [Compound R-14dd, (R)-6,7-dichloro-3-methyl-2-(1-(2-(pyrrolidin-1-yl)ethyl)piperidin-3-yl)quinazolin-4(3H)-one] was 0.1 to 1 µM.
On the same count and under the same terms, the value for `Cn1c([C@@H]2CCCN(CC3COC3)C2)nc2cc(Cl)c(Cl)cc2c1=O` [Compound R-14f, (R)-6,7-dichloro-3-methyl-2-(1-(oxetan-3-ylmethyl)piperidin-3-yl)quinazolin-4(3H)-one] was 0.1 to 1 µM; that for `CC(C)CN1CCC[C@@H](c2nc3cc(Cl)c(Cl)cc3c(=O)n2C)C1` [Compound R-14g, (R)-6,7-dichloro-2-(1-isobutylpiperidin-3-yl)-3-methylquinazolin-4(3H)-one] was more than 10 µM; that for `Cn1c([C@@H]2CCCN(CC(C)(C)O)C2)nc2cc(Cl)c(Cl)cc2c1=O` [Compound R-14h, (R)-6,7-dichloro-2-(1-(2-hydroxy-2-methylpropyl)piperidin-3-yl)-3-methylquinazolin-4(3H)-one] was more than 10 µM.
As to `Cn1c([C@@H]2CCN(CC3COC3)C2)nc2cc(Cl)c(Cl)cc2c1=O` [Compound R-14j, (R)-6,7-dichloro-3-methyl-2-(1-(oxetan-3-ylmethyl)pyrrolidin-3-yl)quinazolin-4(3H)-one], the EC50 under setting [1] fell in the range of 1 to 10 µM.
For `COCCn1c([C@@H]2CCCN(CC3COC3)C2)nc2cc(Cl)c(Cl)cc2c1=O` [Compound R-14k, (R)-6,7-dichloro-3-(2-methoxyethyl)-2-(1-(oxetan-3-ylmethyl)piperidin-3-yl)quinazolin-4(3H)-one], the EC50 under setting [1] was more than 10 µM.
The same measure, in the same setting: the value for `CN(C)CCn1c([C@@H]2CCCN(CC3COC3)C2)nc2cc(Cl)c(Cl)cc2c1=O` [Compound R-14l, (R)-6,7-dichloro-3-(2-(dimethylamino)ethyl)-2-(1-(oxetan-3-ylmethyl)piperidin-3-yl)quinazolin-4(3H)-one] was more than 10 µM.
On the same count and under the same terms, the value for `O=c1c2cc(Cl)c(Cl)cc2nc([C@@H]2CCCN(CC3COC3)C2)n1CCN1CCOCC1` [Compound R-14m, (R)-6,7-dichloro-3-(2-morpholinoethyl)-2-(1-(oxetan-3-ylmethyl)piperidin-3-yl)quinazolin-4(3H)-one] was more than 10 µM.
Still for that read-out and setting: the same measure for `Cn1c([C@@H]2CCCN(CC3COC3)C2)nc2cnc(Cl)cc2c1=O` [Compound R-14n, (R)-6-chloro-3-methyl-2-(1-(oxetan-3-ylmethyl)piperidin-3-yl)pyrido[3,4-d]pyrimidin-4(3H)-one]: more than 10 µM; for `Cn1c([C@@H]2CCCN(CC3COC3)C2)nc2ccc(C#N)cc2c1=O` [Compound R-14o, (R)-3-methyl-2-(1-(oxetan-3-ylmethyl)piperidin-3-yl)-4-oxo-3,4-dihydroquinazoline-6-carbonitrile]: more than 10 µM.
On to `Cn1c([C@@H]2CCCN(CC3COC3)C2)nc2ccc(Cl)cc2c1=O` [Compound R-14p, (R)-6-chloro-3-methyl-2-(1-(oxetan-3-ylmethyl)piperidin-3-yl)quinazolin-4(3H)-one], for which the EC50 under setting [1] was more than 10 µM.
On the same count and under the same terms, the same measure for `Cn1c([C@@H]2CCCN(CC3COC3)C2)nc2ccc(F)cc2c1=O` [Compound R-14q, (R)-6-fluoro-3-methyl-2-(1-(oxetan-3-ylmethyl)piperidin-3-yl)quinazolin-4(3H)-one]: more than 10 µM.
Take `Cn1c([C@@H]2CCCN(CC3COC3)C2)nc2cc(F)ccc2c1=O` [Compound R-14r, (R)-7-fluoro-3-methyl-2-(1-(oxetan-3-ylmethyl)piperidin-3-yl)quinazolin-4(3H)-one]: the EC50 under setting [1] was more than 10 µM.
